From ChEMBL document CHEMBL1201862, “PubChem BioAssay data set” (2004)
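Where inhibition never reached the appropriate level, the endpoint shown equals the highest concentration tested. Otherwise, values were interpolated linearly from a five-concentration, 48-hour dose response in 96-well plates. GI50 is the concentration that inhibits growth by half.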 Active and inactive are the calls of the source. Cut-off read from the data, not from the text of the source: active = GI50 up to about 1.1 µM and inactive = higher.

Key:
Assay in all cases: growth of human tumour cells (NCI), 48 h
[1] = system: OVCAR-8
[2] = system: NCI-H522
[3] = system: Malme-3M
[4] = system: SF-539
[5] = system: HOP-62
[6] = system: ACHN
[7] = system: SK-MEL-28
[8] = system: DMS-273
[9] = system: COLO 205
[10] = system: SK-MEL-5
[11] = system: SNB-78
[12] = system: HOP-92
[13] = system: NCI-H226
[14] = system: OVCAR-3
[15] = system: SF-295
[16] = system: KM-20L2
[17] = system: T47D
[18] = system: BT-549
[19] = system: MCF7
[20] = system: MDA-N

Row | SMILES | GI50 [1] | GI50 [2] | GI50 [3] | GI50 [4] | GI50 [5] | GI50 [6] | GI50 [7] | GI50 [8] | GI50 [9] | GI50 [10] | GI50 [11] | GI50 [12] | GI50 [13] | GI50 [14] | GI50 [15] | GI50 [16] | GI50 [17] | GI50 [18] | GI50 [19] | GI50 [20]
1 | COc1cc(-c2cc(O)c3cc4c(cc3n2)OCO4)cc(OC)c1OC | 75.9 µM (inactive) | 62.7 µM (inactive) | > 100 µM (inactive) | 54.8 µM (inactive) | 24.5 µM (inactive) | 34.7 µM (inactive) | > 100 µM (inactive) | 46.2 µM (inactive) | > 100 µM (inactive) | > 100 µM (inactive) | > 100 µM (inactive) | 20.7 µM (inactive) |  |  |  |  |  |  |  | 
2 | COc1ccc(C(c2ccc(C(C)C)cc(=O)c2O)c2ccc3cccnc3c2O)cc1 (configuration not stated) | 1.08 µM (active) | 1.8 µM (inactive) | 0.398 µM (active) | 0.357 µM (active) | 0.387 µM (active) | 0.274 µM (active) |  | 0.31 µM (active) | 1.05 µM (active) | 0.507 µM (active) | 1.05 µM (active) | 0.235 µM (active) | 0.991 µM (active) | 1.24 µM (inactive) | 0.337 µM (active) |  |  |  |  | 
3 | CCCCCC(/C=C/c1ncccc1OCCCCCC(=O)O)=N\NC1=NCCN1 | > 100 µM (inactive) | 50.8 µM (inactive) | > 100 µM (inactive) | 76 µM (inactive) | > 100 µM (inactive) | > 100 µM (inactive) | > 100 µM (inactive) | 42.9 µM (inactive) | 53.8 µM (inactive) |  |  | 91 µM (inactive) | > 100 µM (inactive) | 89.9 µM (inactive) | > 100 µM (inactive) | > 100 µM (inactive) |  |  |  | 
4 | Clc1ccccc1C(n1ncc2ccccc21)n1ncc2ccccc21 | > 100 µM (inactive) | 15.1 µM (inactive) | 33.9 µM (inactive) | 56.9 µM (inactive) | > 100 µM (inactive) | 56.5 µM (inactive) | 53.2 µM (inactive) | 45.2 µM (inactive) |  | 30.4 µM (inactive) | 71.1 µM (inactive) | 24.3 µM (inactive) | 33.7 µM (inactive) | 80.4 µM (inactive) | 64.6 µM (inactive) |  |  |  |  | 
5 | Cc1cc(N(CCC#N)CCC#N)ccc1/C=C(\NC(=O)/C=C/c1ccccc1)C(=O)Nc1ccccc1Cl | > 100 µM (inactive) |  | > 100 µM (inactive) | > 100 µM (inactive) |  | > 100 µM (inactive) | > 100 µM (inactive) | > 100 µM (inactive) | > 100 µM (inactive) | > 100 µM (inactive) | > 100 µM (inactive) | 29.2 µM (inactive) | > 100 µM (inactive) | > 100 µM (inactive) | 92 µM (inactive) | > 100 µM (inactive) |  |  |  | 
6 | CN1C2CCC1/C(=C/c1cccc3c1OCO3)C(=O)/C2=C\c1cccc2c1OCO2 | > 100 µM (inactive) |  | > 100 µM (inactive) |  | 12.3 µM (inactive) | > 100 µM (inactive) | > 100 µM (inactive) | 45 µM (inactive) | > 100 µM (inactive) | 37.9 µM (inactive) |  | 22.8 µM (inactive) | > 100 µM (inactive) | 87.3 µM (inactive) | 22.1 µM (inactive) | > 100 µM (inactive) |  |  |  | 
7 | Clc1cc2nsnc2c(Cl)n1 |  | 18.4 µM (inactive) | 16.3 µM (inactive) | 22.9 µM (inactive) | > 100 µM (inactive) | 32.5 µM (inactive) | 20.1 µM (inactive) | 36.3 µM (inactive) | 15.3 µM (inactive) | 16.9 µM (inactive) | 56.4 µM (inactive) | 16.6 µM (inactive) | 20.6 µM (inactive) | 17.9 µM (inactive) | 41.5 µM (inactive) | 37.6 µM (inactive) |  |  |  | 
8 | COC(=O)C1=C(C)N2CCOC2CC1c1ccccc1 (configuration not stated) | > 100 µM (inactive) |  |  | > 100 µM (inactive) | > 100 µM (inactive) | > 100 µM (inactive) | 99.1 µM (inactive) |  | > 100 µM (inactive) | > 100 µM (inactive) |  | 44.7 µM (inactive) | > 100 µM (inactive) | 49.5 µM (inactive) | > 100 µM (inactive) | > 100 µM (inactive) |  |  |  | 
9 | O=C1C(=C2CCCC2)CCC1CN1CCCCC1 (configuration not stated) | 21.5 µM (inactive) | 1.77 µM (inactive) | 16.3 µM (inactive) | 21 µM (inactive) |  |  | 17.5 µM (inactive) |  | 25.7 µM (inactive) | 18.2 µM (inactive) | 19.6 µM (inactive) | 19.5 µM (inactive) |  | 16.9 µM (inactive) | > 100 µM (inactive) | 17.5 µM (inactive) |  |  |  | 
10 | CCOC(=O)C1S/C(=N\c2ccc(Cl)cc2Cl)N=C1C (configuration not stated) | 74.6 µM (inactive) | 35.9 µM (inactive) | 76.7 µM (inactive) | 53 µM (inactive) | 51.9 µM (inactive) | 95.1 µM (inactive) | > 100 µM (inactive) | 61.1 µM (inactive) | > 100 µM (inactive) | 48.6 µM (inactive) | 60.7 µM (inactive) | 20.6 µM (inactive) | > 100 µM (inactive) | 96.6 µM (inactive) | 32.1 µM (inactive) | > 100 µM (inactive) |  |  |  | 
11 | N#CC1C(=O)C(=O)N(c2ccccc2)C1=O (configuration not stated) | > 100 µM (inactive) | > 100 µM (inactive) | > 100 µM (inactive) | > 100 µM (inactive) | > 100 µM (inactive) | > 100 µM (inactive) | > 100 µM (inactive) | > 100 µM (inactive) | > 100 µM (inactive) | > 100 µM (inactive) | > 100 µM (inactive) | > 100 µM (inactive) | > 100 µM (inactive) | > 100 µM (inactive) | > 100 µM (inactive) | > 100 µM (inactive) |  |  |  | 
12 | COc1ccc(C(=O)C(C(=O)C(=O)NC2C3CC4CC(C3)CC2C4)c2ccc(OC)cc2)cc1 (configuration not stated) | > 100 µM (inactive) | > 100 µM (inactive) | > 100 µM (inactive) | > 100 µM (inactive) | > 100 µM (inactive) | > 100 µM (inactive) | > 100 µM (inactive) | > 100 µM (inactive) | > 100 µM (inactive) | > 100 µM (inactive) | > 100 µM (inactive) | > 100 µM (inactive) | > 100 µM (inactive) | > 100 µM (inactive) | > 100 µM (inactive) | > 100 µM (inactive) |  |  |  | 
13 | O=C(CCc1ccccc1)CC1OC(=O)C(Cl)=C1Cl (configuration not stated) | 20 µM (inactive) | 14.5 µM (inactive) | 18.2 µM (inactive) | 31 µM (inactive) | 26.2 µM (inactive) | 20.5 µM (inactive) | 16.9 µM (inactive) | 22.3 µM (inactive) | 17.2 µM (inactive) | 20.8 µM (inactive) | 46.5 µM (inactive) | 23.9 µM (inactive) |  | 20.3 µM (inactive) | 27.4 µM (inactive) | 13.2 µM (inactive) |  |  |  | 
14 | CC12CC3CC(C1)CC(N=[N+]=[N-])(C3)C2 | > 100 µM (inactive) | > 100 µM (inactive) | > 100 µM (inactive) | > 100 µM (inactive) | > 100 µM (inactive) | > 100 µM (inactive) | > 100 µM (inactive) | > 100 µM (inactive) | > 100 µM (inactive) | > 100 µM (inactive) | > 100 µM (inactive) | > 100 µM (inactive) | > 100 µM (inactive) | > 100 µM (inactive) | > 100 µM (inactive) | > 100 µM (inactive) |  |  |  | 
15 | C/C=C(\C)C(=O)OC1C2C(C)=CC(=O)C(O)C2(C)C2C3(O)OCC24C1OC(=O)C(OC(C)=O)C4C(C)C3O (configuration not stated) | 0.0396 µM (active) |  |  |  | 0.0375 µM (active) |  | 0.0375 µM (active) | 0.0375 µM (active) | 0.0719 µM (active) |  | 0.0483 µM (active) | 0.0388 µM (active) | 0.0375 µM (active) | 0.0375 µM (active) | 0.0402 µM (active) | 0.0471 µM (active) |  |  |  | 
16 | C=CC1(C)CCC2=C(CCC3C(C)(C(=O)OC)CCCC23C)C1=O (configuration not stated) | 29.8 µM (inactive) | 15.1 µM (inactive) | 17.9 µM (inactive) |  | 16.8 µM (inactive) | 17.7 µM (inactive) |  |  | 19.1 µM (inactive) | 16.7 µM (inactive) | 18.8 µM (inactive) |  | 23.8 µM (inactive) | 19.7 µM (inactive) | 27 µM (inactive) | 21.3 µM (inactive) |  |  |  | 
17 | CCOC(=O)CSC(=O)NCCCl | > 100 µM (inactive) | > 100 µM (inactive) | > 100 µM (inactive) | > 100 µM (inactive) | > 100 µM (inactive) | > 100 µM (inactive) | > 100 µM (inactive) | > 100 µM (inactive) | > 100 µM (inactive) |  | > 100 µM (inactive) | > 100 µM (inactive) | > 100 µM (inactive) | > 100 µM (inactive) | > 100 µM (inactive) | > 100 µM (inactive) |  |  |  | 
18 | COc1ccc(N(CC(=O)O)S(=O)(=O)c2ccccc2)cc1 | > 100 µM (inactive) | > 100 µM (inactive) | > 100 µM (inactive) | > 100 µM (inactive) |  | > 100 µM (inactive) |  | > 100 µM (inactive) | > 100 µM (inactive) | > 100 µM (inactive) |  | > 100 µM (inactive) | > 100 µM (inactive) | > 100 µM (inactive) | > 100 µM (inactive) | > 100 µM (inactive) |  |  |  | 
19 | Cc1cc(C)c(/C=C2\C(=O)Nc3ccccc32)[nH]1 [SEMAXANIB] | > 49.5 µM (inactive) | > 49.9 µM (inactive) | > 58.5 µM (inactive) | > 100 µM (inactive) | > 82.2 µM (inactive) | 66.2 µM (inactive) | > 100 µM (inactive) |  | > 100 µM (inactive) | > 90.8 µM (inactive) |  | 48.3 µM (inactive) | 1.22 µM (inactive) | > 100 µM (inactive) | > 100 µM (inactive) |  | > 100 µM (inactive) | > 100 µM (inactive) | 83.9 µM (inactive) | > 95.9 µM (inactive)
